According to ChEMBL document CHEMBL3301361, “Experimental in vitro DMPK and physicochemical data on a set of publicly disclosed compounds”:
In brackets after ≈: the same amount, converted by molar mass.

What was measured:
[1] = in vitro; conditions: human, plasma
[2] = in vitro; conditions: SD, HW or BN, rat, plasma
[3] = physchem; conditions: octan-1-ol/water
[4] = in vitro; conditions: hepatocytes
[5] = in vitro; conditions: human
[6] = physchem; conditions: pH 7.4 buffer

| SMILES | fraction unbound at 5 h ([1]; PPB) | fraction unbound at 5 h [2] | logD ([3]; pH 7.4, LogD7.4) | further results |
| --- | --- | --- | --- | --- |
| C[C@@H]1Cc2c([nH]c3cc(Cl)c(F)cc23)[C@]2(N1)C(=O)Nc1ccc(Cl)cc12 | – | – | – | hepatocyte CLint [4]: 7.24 µL/min/1e6 cells |
| CN1CCN(c2ccc(-c3cnc4cccc(-c5cc(F)c(CN6CCOCC6)c(F)c5)c4n3)cc2)CC1 | – | – | – | hepatocyte CLint [4]: 14.4 µL/min/1e6 cells |
| CC1(C)CNC(=O)c2sc(N3CCOCC3)nc2C1 | 0.701 | 0.517 | 1.29 | solubility thermodynamic [6]: 251 µM (≈ 70.7 µg/mL) |
| NC(=O)c1cc(C(N)=O)n(-c2cccc(-c3cc(C(F)(F)F)ccc3C(F)(F)F)c2)n1 | 0.0328 | 0.0568 | 3.4 | – |
| CCN(CC)S(=O)(=O)c1ccc(-c2cc(C(F)(F)F)ccc2OCC(=O)O)cc1 | 0.0122 | 0.0179 | 0.67 | – |
| COC[C@@H](O)Cn1c(=O)cnn(-c2ccc(Cl)c(C(=O)NCC3(O)CCCCCC3)c2)c1=O | 0.586 | 0.608 | 1.44 | – |
| c1ccc(Nc2nc3c(s2)CCCc2[nH]ncc2-3)nc1 | – | – | – | hepatocyte CLint [4]: 36.3 µL/min/1e6 cells |
| C[C@@](C(=O)O[C@H]1C[N+]2(CCCc3cncnc3)CCC1CC2)(c1ccccc1)N1CCCCC1 | – | – | – | hepatocyte CLint [4]: 66 µL/min/1e6 cells |
| C[C@@](C(=O)O[C@H]1C[N+]2(CCCc3cc4ccccc4s3)CCC1CC2)(c1ccccc1)N1CCCCC1 | – | – | – | hepatocyte CLint [4]: 65 µL/min/1e6 cells |
| C[C@@](C(=O)O[C@H]1C[N+]2(CCOc3ccc(Cl)cc3)CCC1CC2)(c1ccccc1)N1CCCCC1 | – | – | – | hepatocyte CLint [4]: 60 µL/min/1e6 cells |
| C[C@@](C(=O)O[C@H]1C[N+]2(CCCOc3ccc(F)cc3)CCC1CC2)(c1ccccc1)N1CCCCC1 | – | – | – | hepatocyte CLint [4]: 66 µL/min/1e6 cells |
| C[C@@](C(=O)O[C@H]1C[N+]2(CC(=O)Nc3ccncn3)CCC1CC2)(c1ccccc1)N1CCCCC1 | – | – | – | hepatocyte CLint [4]: 39 µL/min/1e6 cells |
| CCn1nc(C)c(C(=O)N[C@@H](C)C(C)(C)C)c1NS(=O)(=O)c1ccc(C)cc1 | 0.0163 | 0.0477 | 0.95 | – |
| Cc1ccc(S(=O)(=O)Nc2c(C(=O)N[C@@H](C)C(C)(C)C)c(C)nn2C2CCC2)cc1 | 0.0183 | 0.0209 | 1.57 | microsomal CLint ([5]; microsomes): 11 µL/min/mg |
| Cc1nn(C)c(C)c1-c1cccc2c(CCCOc3cccc4ccccc34)c(C(=O)O)[nH]c12 | – | – | – | hepatocyte CLint [4]: 61.7 µL/min/1e6 cells |
| COc1cc(C)c(S(=O)(=O)N(C)CCOCC(=O)N2CCC(C3CCN(C)CC3)CC2)c(C)c1 | 0.483 | 0.511 | 0.3 | – |

| SMILES | fraction unbound at 5 h ([1]; PPB) | fraction unbound at 5 h [2] | logD ([3]; pH 7.4, LogD7.4) | further results |
| --- | --- | --- | --- | --- |
| CCC(=C(c1ccc(O)cc1)c1ccc(OCCN(C)C)cc1)c1ccccc1 | – | – | – | hepatocyte CLint [4]: 56.2 µL/min/1e6 cells |
| CSc1c(C(=O)NC2C3CC4CC(C3)CC2C4)cnn1-c1ccc(C(=O)O)cc1 (centres undefined) | – | – | – | hepatocyte CLint [4]: 12.3 µL/min/1e6 cells |
| Cc1cn([C@H]2CCCN([C@H](CC3CCCCC3)c3ccc(C(=O)O)c(Oc4cccc(Cl)c4)c3)C2)c(=O)[nH]c1=O | – | – | – | hepatocyte CLint [4]: 42.7 µL/min/1e6 cells |
| O=C(O)CN1C(=O)C(=O)c2ccccc21 | – | – | – | hepatocyte CLint [4]: 26.9 µL/min/1e6 cells |
| CCN1CCC[C@H]1CNC(=O)c1cc(Br)cc(OC)c1OC | 0.54 | 0.701 | 1.2 | – |
| O=c1c2ccccc2[nH]n1Cc1c[nH]c2ccccc12 | – | – | – | hepatocyte CLint [4]: 4.37 µL/min/1e6 cells |
| Cc1cccc2c(O)nc(-c3ccc(C(F)(F)F)cc3)nc12 | – | – | – | hepatocyte CLint [4]: 45.7 µL/min/1e6 cells |
| CC(C)Oc1cc(Nc2nc(N[C@@H](C)c3ccc(F)cn3)nc(OC(CO)CO)c2Cl)n[nH]1 | 0.176 | 0.173 | 2.77 | – |
| OCCN1CCN(CCCN2c3ccccc3Sc3ccc(C(F)(F)F)cc32)CC1 [FLUPHENAZINE] | – | 0.0119 | – | fraction unbound at 5 h [1]: 0.0119; logD ([3]; pH 7.4): 3.8 |
| Cn1cc[nH]c1=S [METHIMAZOLE] | 0.81 | 0.814 | -0.42 | – |
| Cc1cc2c(s1)Nc1ccccc1N=C2N1CCN(C)CC1 [OLANZAPINE] | – | 0.124 | – | fraction unbound at 5 h [1]: 0.107; logD ([3]; pH 7.4): 2.19 |
| CCc1nc(N)nc(N)c1-c1ccc(Cl)cc1 [PYRIMETHAMINE] | 0.0736 | 0.069 | 2.31 | – |
| CN(C)CCOc1cc(NS(=O)(=O)c2c(Cl)cc(C(F)(F)F)cc2Cl)ccc1Cl [SB611812] | 0.0029 | 0.0024 | 2.99 | – |
| Cc1ccsc1C(=CCCN1CCC[C@@H](C(=O)O)C1)c1sccc1C [TIAGABINE] | 0.051 | 0.0836 | 1.49 | – |
| O=c1n(CCCN2CCN(c3cccc(Cl)c3)CC2)nc2ccccn12 [TRAZODONE] | – | 0.124 | 2.67 | solubility thermodynamic [6]: 891 µM (≈ 331 µg/mL); fraction unbound at 5 h [1]: 0.03 |

The next lines start with results.

| fraction unbound at 5 h ([1]; PPB) | fraction unbound at 5 h [2] | logD ([3]; pH 7.4, LogD7.4) | SMILES | further results |
| --- | --- | --- | --- | --- |
| 0.46 | 0.344 | 1.3 | N#C[C@@]1(NC(=O)[C@@H](N)Cc2cccs2)C[C@@H]1c1ccccc1 | – |
| – | 0.0122 | – | Oc1nc2c(O)ccc(CCNCCCSCCOCCc3cccc4ccccc34)c2s1 | microsomal CLint ([5]; liver microsomes): 36 µL/min/mg |
| 0.0251 | 0.0391 | 0.74 | O=C(NCCc1ccccc1)c1cc(-n2ncc(=O)[nH]c2=O)ccc1Cl | microsomal CLint ([5]; liver microsomes): < 3 µL/min/mg |
| 0.0149 | 0.0163 | 1.75 | Cc1nn(-c2ccccc2)c(NS(=O)(=O)C2CCCCC2)c1C(=O)N[C@@H](C)C(C)(C)C | solubility thermodynamic [6]: 398 µM (≈ 178 µg/mL) |
| 0.0124 | 0.024 | 0.03 | Cc1c(Sc2ccc(Cl)cc2)c2c(-c3cnccn3)cccc2n1CC(=O)O | microsomal CLint ([5]; microsomes): 8 µL/min/mg |
| 0.0872 | 0.0606 | – | CN(C(=O)Cc1ccc(-n2cnnn2)cc1)C1CCN(Cc2ccc(C(F)(F)F)cc2)CC1 | solubility thermodynamic [6]: 17.8 µM (≈ 8.16 µg/mL) |
| 0.069 | 0.101 | 3 | COc1ccccc1CN(C(C)=O)c1cnccc1Oc1ccccc1 | – |
| 0.0948 | 0.132 | – | O=C(NCc1ccc(OC(F)(F)F)cc1)C1c2ccccc2C(=O)N1C1CCOCC1 (centres undefined) | solubility thermodynamic [6]: 83.2 µM (≈ 36.1 µg/mL) |
| 0.309 | 0.768 | 0.9 | COc1ccccc1O[C@@H](c1ccccc1)[C@@H]1CNCCO1 | – |
| 0.003 | 0.003 | – | CC(C)N1C(=O)[C@H](NC(=O)[C@@H](Cc2ccccc2OC(F)(F)F)NC(=O)OC(C)(C)C)CCc2ccccc21 | solubility thermodynamic [6]: 5 µM (≈ 2.75 µg/mL) |
| 0.0219 | 0.0268 | 3.6 | CN(C)C(=O)[C@H](O)[C@H](Cc1ccccc1)NC(=O)c1cc2cc(Cl)ccc2[nH]1 | solubility thermodynamic [6]: 22.9 µM (≈ 9.16 µg/mL) |
| 0.681 | 0.608 | 0.91 | C[C@H]([C@H](O)c1ccc(O)cc1)N1CCC(O)(c2ccccc2)CC1 | – |
| 0.11 | 0.101 | 2.28 | Clc1ccc2c(c1)C(N1CCNCC1)=Nc1ccccc1O2 [AMOXAPINE] | – |
| 0.0784 | 0.117 | 2.83 | CN(C)CCC=C1c2ccccc2C=Cc2ccccc21 [CYCLOBENZAPRINE] | microsomal CLint ([5]; microsomes): 4.07 µL/min/mg |
| – | 0.0146 | 0.71 | CC(C(=O)O)c1cccc(Oc2ccccc2)c1 (centres undefined) [FENOPROFEN] | microsomal CLint ([5]; liver microsomes): 10.2 µL/min/mg |
| 0.16 | 0.22 | 2.22 | CCOC(=O)Nc1ccc(NCc2ccc(F)cc2)nc1N [FLUPIRTINE] | – |
| 0.126 | 0.0784 | 0.89 | CNCCCC12CCC(c3ccccc31)c1ccccc12 [MAPROTILINE] | – |
| 0.101 | 0.0532 | 1.78 | Fc1ccc([C@@H]2CCNC[C@H]2COc2ccc3c(c2)OCO3)cc1 [PAROXETINE] | – |
| 0.129 | 0.179 | 2.41 | O=C1NC(=O)C(c2ccccc2)(c2ccccc2)N1 [PHENYTOIN] | solubility thermodynamic [6]: 79.4 µM (≈ 20 µg/mL) |
| 0.0801 | 0.17 | 2.5 | CN1CCc2cc(Cl)c(O)cc2[C@@H](c2ccccc2)C1 [SCH-23390] | – |
| 0.0146 | 0.02 | 3.15 | CN[C@H]1CC[C@@H](c2ccc(Cl)c(Cl)c2)c2ccccc21 [SERTRALINE] | – |
